Measured values from ChEMBL document CHEMBL3600382, “A-ring substituted 17β-arylsulfonamides of 17β-aminoestra-1,3,5(10)-trien-3-ol as highly potent reversible inhibitors of steroid sulfatase” (Bioorg Med Chem, 2015).

Legend:
Format in all cases: functional
786-0 = assay: Cytotoxicity against human 786-0 cells
MOLT-4 = assay: Cytotoxicity against human MOLT4 cells
MDA-MB-435 = assay: Cytotoxicity against human MDA-MB-435 cells
RXF 393 = assay: Cytotoxicity against human RXF393 cells
NCI-H23 = assay: Cytotoxicity against human NCI-H23 cells
ACHN = assay: Cytotoxicity against human ACHN cells
CCRF-CEM = assay: Cytotoxicity against human CCRF-CEM cells
CAKI-1 = assay: Cytotoxicity against human Caki1 cells
SN12C = assay: Cytotoxicity against human SN12C cells
OVCAR-8 = assay: Cytotoxicity against human OVCAR8 cells
SK-OV-3 = assay: Cytotoxicity against human SKOV3 cells
SNB-75 = assay: Cytotoxicity against human SNB75 cells
SK-MEL-2 = assay: Cytotoxicity against human SK-MEL-2 cells
SF-539 = assay: Cytotoxicity against human SF539 cells
M14 = assay: Cytotoxicity against human M14 cells
KM12 = assay: Cytotoxicity against human KM12 cells
LOX IMVI = assay: Cytotoxicity against human LOXIMVI cells
COLO 205 = assay: Cytotoxicity against human COLO205 cells
NCI-H460 = assay: Cytotoxicity against human NCI-H460 cells
OVCAR-5 = assay: Cytotoxicity against human OVCAR5 cells
SK-MEL-5 = assay: Cytotoxicity against human SK-MEL-5 cells
HCC 2998 = assay: Cytotoxicity against human HCC2998 cells
HOP-92 = assay: Cytotoxicity against human HOP92 cells
SF-295 = assay: Cytotoxicity against human SF295 cells
A498 = assay: Cytotoxicity against human A498 cells
OVCAR-3 = assay: Cytotoxicity against human OVCAR3 cells
SR = assay: Cytotoxicity against human SR cells
HL-60(TB) = assay: Cytotoxicity against human HL-60(TB) cells
T47D = assay: Cytotoxicity against human T47D cells
TK-10 = assay: Cytotoxicity against human TK10 cells
[1] = Cytotoxicity against human NCI-ADR-RES cells
MDA-MB-231 = assay: Cytotoxicity against human MDA-MB-231 cells
MDA-MB-468 = assay: Cytotoxicity against human MDA-MB-468 cells
SF-268 = assay: Cytotoxicity against human SF268 cells
A549 = assay: Cytotoxicity against human A549 cells
SW-620 = assay: Cytotoxicity against human SW620 cells
PC-3 = assay: Cytotoxicity against human PC3 cells
IGROV-1 = assay: Cytotoxicity against human IGROV1 cells
UACC-62 = assay: Cytotoxicity against human UACC62 cells
UACC-257 = assay: Cytotoxicity against human UACC257 cells
[2] = Cytotoxicity against human Hs578T cells; details: Hs-578T
BT-549 = assay: Cytotoxicity against human BT549 cells
MCF7 = assay: Cytotoxicity against human MCF7 cells
NCI-H226 = assay: Cytotoxicity against human NCI-H226 cells
[3] = Cytotoxicity against human EKVX cells
RPMI-8226 = assay: Cytotoxicity against human RPMI8226 cells
HT-29 = assay: Cytotoxicity against human HT-29 cells
U-251 = assay: Cytotoxicity against human U251 cells

## C[C@]12CC[C@@H]3c4ccc(O)cc4CC[C@H]3[C@@H]1CC[C@@H]2NS(=O)(=O)c1cccc(C(F)(F)F)c1
786-0
  GI50: 1 µM
MOLT-4
  GI50: 1 µM
MDA-MB-435
  GI50: 1 µM
RXF 393
  GI50: 1 µM
NCI-H23
  GI50: 1 µM
ACHN
  GI50: 1 µM
CCRF-CEM
  GI50: 1 µM
CAKI-1
  GI50: 1 µM
SN12C
  GI50: 1 µM
OVCAR-8
  GI50: 1 µM
SK-OV-3
  GI50: 1 µM
SNB-75
  GI50: 1 µM
SK-MEL-2
  GI50: 1 µM
SF-539
  GI50: 1 µM
M14
  GI50: 1 µM
KM12
  GI50: 1 µM
LOX IMVI
  GI50: 1 µM
COLO 205
  GI50: 1 µM
NCI-H460
  GI50: 1 µM
OVCAR-5
  GI50: 1 µM
SK-MEL-5
  GI50: 1 µM
HCC 2998
  GI50: 1 µM
HOP-92
  GI50: 1 µM
SF-295
  GI50: 1 µM
A498
  GI50: 1 µM
OVCAR-3
  GI50: 1 µM
SR
  GI50: 1 µM
HL-60(TB)
  GI50: 1 µM
T47D
  GI50: 3.7 µM
TK-10
  GI50: 1 µM
[1]
  GI50: 1 µM
MDA-MB-231
  GI50: 2.4 µM
MDA-MB-468
  GI50: 4.1 µM
SF-268
  GI50: 1 µM
A549
  GI50: 1 µM
SW-620
  GI50: 1 µM
PC-3
  GI50: 1 µM
IGROV-1
  GI50: 1 µM
UACC-62
  GI50: 1 µM
UACC-257
  GI50: 1 µM
[2]
  GI50: 3.2 µM
BT-549
  GI50: 2.7 µM
MCF7
  GI50: 2.7 µM
NCI-H226
  GI50: 1 µM
[3]
  GI50: 1 µM
RPMI-8226
  GI50: 1 µM
HT-29
  GI50: 1 µM
U-251
  GI50: 1 µM

## C[C@]12CC[C@@H]3c4ccc(O)cc4CC[C@H]3[C@@H]1CC[C@@H]2NS(=O)(=O)c1cccc(Br)c1
786-0
  GI50: 1 µM
MOLT-4
  GI50: 1 µM
MDA-MB-435
  GI50: 1 µM
RXF 393
  GI50: 1 µM
NCI-H23
  GI50: 1 µM
ACHN
  GI50: 1 µM
CCRF-CEM
  GI50: 1 µM
CAKI-1
  GI50: 1 µM
SN12C
  GI50: 1 µM
OVCAR-8
  GI50: 1 µM
SK-OV-3
  GI50: 1 µM
SNB-75
  GI50: 1 µM
SK-MEL-2
  GI50: 1 µM
SF-539
  GI50: 1 µM
M14
  GI50: 1 µM
KM12
  GI50: 1 µM
LOX IMVI
  GI50: 1 µM
COLO 205
  GI50: 1 µM
NCI-H460
  GI50: 1 µM
OVCAR-5
  GI50: 1 µM
SK-MEL-5
  GI50: 1 µM
HCC 2998
  GI50: 1 µM
HOP-92
  GI50: 1 µM
SF-295
  GI50: 1 µM
A498
  GI50: 1 µM
OVCAR-3
  GI50: 1 µM
SR
  GI50: 1 µM
HL-60(TB)
  GI50: 1 µM
T47D
  GI50: 5 µM
TK-10
  GI50: 1 µM
[1]
  GI50: 1 µM
MDA-MB-231
  GI50: 3.9 µM
MDA-MB-468
  GI50: 2.4 µM
SF-268
  GI50: 1 µM
A549
  GI50: 1 µM
SW-620
  GI50: 1 µM
PC-3
  GI50: 1 µM
IGROV-1
  GI50: 1 µM
UACC-62
  GI50: 1 µM
UACC-257
  GI50: 1 µM
[2]
  GI50: 4 µM
BT-549
  GI50: 3.1 µM
MCF7
  GI50: 3.7 µM
NCI-H226
  GI50: 1 µM
[3]
  GI50: 1 µM
RPMI-8226
  GI50: 1 µM
HT-29
  GI50: 1 µM
U-251
  GI50: 1 µM
